In paper PMC8776092, “A Toxoplasma gondii Oxopurine Transporter Binds Nucleobases and Nucleosides Using Different Binding Modes” (International Journal of Molecular Sciences, 2022):
Read-outs that look alike come from different tables or passages of the source.

Key:
Tg244440 [1] = target: T1, Tg244440 (Toxoplasma gondii, UniProt A0A125YNC9); experiment: [3H]-guanine uptake and its inhibition in T. brucei TbNB-KO procyclics expressing Tg244440 (clone F5); assay type: cell-based
T1 sequence (A0A125YNC9 1-462): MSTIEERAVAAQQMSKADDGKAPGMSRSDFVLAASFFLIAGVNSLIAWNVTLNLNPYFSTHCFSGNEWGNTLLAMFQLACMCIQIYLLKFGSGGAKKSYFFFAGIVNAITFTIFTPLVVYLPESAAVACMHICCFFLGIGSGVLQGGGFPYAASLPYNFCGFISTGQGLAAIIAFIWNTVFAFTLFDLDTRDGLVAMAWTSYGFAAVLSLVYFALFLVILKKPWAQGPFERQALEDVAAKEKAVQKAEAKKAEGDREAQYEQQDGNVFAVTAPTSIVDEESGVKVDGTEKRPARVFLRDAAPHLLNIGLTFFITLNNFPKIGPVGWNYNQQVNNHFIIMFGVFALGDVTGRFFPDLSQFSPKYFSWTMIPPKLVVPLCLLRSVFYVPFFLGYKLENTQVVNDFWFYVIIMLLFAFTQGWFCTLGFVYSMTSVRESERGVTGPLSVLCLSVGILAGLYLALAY
Protocol: (§1) Briefly, PCF cells of T. brucei in logarithmic growth were harvested by centrifugation at 1000× g for 10 min, washed twice in AB and then resuspended in fresh buffer at a final density of 10^8 cells/mL. […] Immediately after finishing the assay, all tubes were flash-frozen in liquid nitrogen and the cell pellets were cut into scintillation vials and lysed with a solution of 2% SDS for one hour under agitation. Then, 3 mL of scintillation fluid (Scintilogic U, Lablogic) was added to each vial and left agitating overnight on a rocking platform. The next morning, the vials were vigorously shaken to ensure optimal mixing and the scintillation was measured in a 300SL (Hidex) scintillation counter. All assays were carried out in triplicate. All experimental data such as Km, Ki and Vmax values are the average and SEM of at least three separate experiments, each in triplicate, unless otherwise indicated.
(§2) Background scintillation was measured in vials containing no cells or radiolabeled substrate, and counts associated with extracellular radiolabel were calculated from samples where cells were briefly incubated with the same concentration of radiolabel, but in the presence of saturating concentrations of non-radiolabeled substrate before centrifugation through oil. The average of the three control replicates was subtracted from each data point.

Tg244440 [2] = target: T1, Tg244440; details: clone F5
Protocol: as §1, §2

[3] = tested on: TbNBT-KO cells transfected with the empty vector (EV); experiment: [3H]-guanine and [3H]-hypoxanthine uptake in TbNBT-KO cells transfected with the empty vector (EV); assay type: cell-based, Trypanosoma brucei; details: for Rate of [3H]-hypoxanthine uptake, EV: empty vector cells
Protocol: as §1, §2

Tg244440 [4] = target: T1, Tg244440; assay type: cell-based; details: 0.1 μM [3H]-permeant, 60 s, clones B11, F5 and G10
Protocol: Figure 2 Uptake of radiolabelled nucleosides and nucleobases by in three clonal lines of T. brucei NB-KO procyclics, expressing Tg244440 in pHD1336. EV, empty vector control. Radiolabel concentration was 0.1 µM and uptake was measured over 60 s, in triplicate (average and SEM shown). Statistically significant differences between the control and the Tg244440-expressing cells were established using Student’s unpaired t-test. *, p < 0.05, **, p < 0.01, ***, p < 0.001.
as §1

TgNBT1 = details: tachyzoites; cited from earlier work
[5] = [Permeant] 0.1 μM, over 60 s, listed as hypoxanthine
[6] = [Permeant] 1000 μM (unlabelled hypoxanthine to saturate the transporter)

In the case of `O=c1[nH]cnc2nc[nH]c12` [Hypoxanthine], the Ki (Tg244440 [1]; Ki, competition with 50 nM [3H]-guanine, 30 s, Cheng-Prusoff) is reported as 2260 ± 360 nM, the “Sum of δ(ΔG^0) for the 7-deaza and 9-deaza analogues” value (Tg244440 [1]; analogues of the named nucleobase) is reported as 15.8 kJ/mol and the “ΔG^0 (Gibbs free energy of interaction)” value (Tg244440 [1]; calculated from Km or Ki, ΔG0 = −RTln(Ki)) is reported as -7.7 kcal/mol. The “δ(ΔG^0) relative to Guanine” value (Tg244440 [1]; relative to Guanine) was 0.359 kcal/mol, the “Summation of the Gibbs free energy of the proposed interactions (binding model), Σ” value (Tg244440 [1]; substrate binding model, Figure 5, for adenosine base group only) was -8.01 kcal/mol and the “Rate of [3H]-hypoxanthine uptake, +Tg244440” value (“Rate … +Tg244440” for short) (Tg244440 [2]; [Permeant] 0.1 μM, over 60 s) was 0.048 ± 0.0004 pmol(10^7 Cells)^−1s^−1. For the same molecule, the “Rate … +Tg244440” value (Tg244440 [2]; [5]) was 0.048 pmol(10^7 Cells)^−1s^−1, the “Rate … +Tg244440” value (Tg244440 [2]; [6]) was −0.01 ± 0.01 pmol(10^7 Cells)^−1s^−1 and the “Slope of uptake in EV control lower than in +Tg244440 clone F5” value ([3]; 0.10 µM [3H]-hypoxanthine over 60 s) was 86.2%. For the same molecule, the “Rate of [3H]-hypoxanthine uptake, EV” value ([3]; [Permeant] 0.1 μM, over 60 s) was 0.0066 ± 0.0007 pmol(10^7 Cells)^−1s^−1, the “Rate of [3H]-hypoxanthine uptake, EV” value [3, 5] was 0.0066 pmol(10^7 Cells)^−1s^−1 and the “Rate of [3H]-hypoxanthine uptake, EV” value [3, 6] was 0.00055 pmol(10^7 Cells)^−1s^−1. The “Uptake of radiolabelled permeant in Tg244440 clones compared to empty vector” value (Tg244440 [4]) was “highly significant increases” and the Km (TgNBT1) was 0.91 µM.
